“Also recorded” adds a separate entry of the source.
Key:
[1] = molecular target: T1, Sema3A (Mus musculus, UniProt O08665); test: Collagen gel co-culture: suppression of neurite outgrowth inhibitory action of Sema3A; assay type: cell-based; design: key to suppression of neurite outgrowth inhibitory activity of Sema3A, score / inhibition of neurite outgrowth-inhibitory action of Sema3A, score: neurites outgrew in a complete concentric circular shape just like for the control groups where Sema3A-non-expressing COS7 cells were used, it was scored +++ (a strong inhibitory effect for Sema3A); outgrowth was found almost in a concentric circular shape accompanied with a little suppression of the outgrowth toward the direction of Sema3A-expressing COS cells, it was scored ++; outgrowth toward the direction of Sema3A-expressing COS cells is fairly suppressed to present a crescent shape, it was scored +; outgrowth toward the direction of Sema3A-expressing COS cells was not found at all (no inhibitory effect for Sema3A), it was scored −; settings: for suppression of neurite outgrowth inhibitory activity of Sema3A, score: Example 5
T1 construct: expressed in transfected cells; host or cells: COS7
T1 sequence (O08665 21-772): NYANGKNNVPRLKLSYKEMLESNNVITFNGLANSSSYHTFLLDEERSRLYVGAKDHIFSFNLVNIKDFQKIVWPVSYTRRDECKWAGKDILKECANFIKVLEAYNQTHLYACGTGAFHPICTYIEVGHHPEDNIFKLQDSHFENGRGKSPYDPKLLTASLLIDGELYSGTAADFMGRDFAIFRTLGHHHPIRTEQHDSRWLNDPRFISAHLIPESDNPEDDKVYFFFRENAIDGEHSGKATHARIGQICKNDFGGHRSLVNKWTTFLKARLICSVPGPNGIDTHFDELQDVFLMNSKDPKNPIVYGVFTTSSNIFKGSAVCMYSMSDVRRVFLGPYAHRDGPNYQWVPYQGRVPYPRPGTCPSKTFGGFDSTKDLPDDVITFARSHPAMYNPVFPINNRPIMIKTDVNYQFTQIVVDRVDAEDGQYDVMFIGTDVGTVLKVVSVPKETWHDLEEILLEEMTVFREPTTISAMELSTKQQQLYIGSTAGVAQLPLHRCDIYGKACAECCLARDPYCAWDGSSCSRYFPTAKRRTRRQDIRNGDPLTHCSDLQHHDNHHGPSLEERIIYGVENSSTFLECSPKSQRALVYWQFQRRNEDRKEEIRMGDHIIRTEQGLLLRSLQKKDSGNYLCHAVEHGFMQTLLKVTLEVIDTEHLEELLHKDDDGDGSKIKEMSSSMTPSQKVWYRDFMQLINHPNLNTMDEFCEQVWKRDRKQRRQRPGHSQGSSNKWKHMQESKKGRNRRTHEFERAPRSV
Procedure: Whether the object compounds (SPF-3059-1, M162, A721) have persistent inhibitory action to Sema3A was analyzed by the collagen gel co-culture method (Neuroprotocols 4, 116, 1994) using Sema3A-expressing COS7 cell clumps and 7- or 8-day-old chick embryo dorsal root ganglions. The Sema3A-expressing COS7 cell clumps were generated as follows. 1 μg of Sema3A-expression plasmid was introduced into COS7 cells (100000 cells/35 mm culture plate), which were cultured overnight, with the FuGENE6 transfection reagent (Roche). 2.5 hours after the starting of the transfection, the COS7 cells were collected by trypsinization and centrifugation, and re-suspended in a medium of 200 μl. 20 μl of the cell suspension was placed on the lid of the culture plate (inside) and the lid was turned over, and then the suspension was cultivated for 20 hours (hanging drop culture) (Cell 78, 425, 1994). When the culture was over, aggregated COS7 cells (clump) were collected and trimmed to a diameter of 0.5 mm. The Sema3A-expressing COS7 cell clump and the above-mentioned dorsal root ganglions were placed in parallel at a distance of 0.5 to 1 mm in a 0.2% collagen gel which was then cultivated in a medium containing the aforementioned compounds at various concentrations for 2 days at 37° C. under 5% CO2. Glutaraldehyde was quickly added therein to make the final concentration 1%. The cultures were then left for 1 hour at room temperature so that the tissues were fixed, and the neurite outgrowth was microscopically observed. The results are found in FIG. 4.
When a medium not containing a subject compound was used, neurites were unable to grow towards the COS7 cell clump with the high concentration of Sema3A and grew only to the opposite direction.
In a similar way as in Example 4, suppression of the neurite outgrowth inhibitory activity was analyzed for the compounds, SPF-3059-1, SPF-3059-2 and SPF-3059-5. When the neurites outgrew in a complete concentric circular shape just like for the control groups where Sema3A-non-expressing COS7 cells were used, it was scored +++ (a strong inhibitory effect for Sema3A). When the outgrowth was found almost in a concentric circular shape accompanied with a little suppression of the outgrowth toward the direction of Sema3A-expressing COS cells, it was scored ++. […] When the outgrowth toward the direction of Sema3A-expressing COS cells was not found at all (no inhibitory effect for Sema3A), it was scored −.

[2] = molecular target: T2, rat semaphorin 6C-AP (Sema6C-AP) (Rattus norvegicus, UniProt Q9WTL3); test: Suppression of growth cone collapse activity of Sema6C-AP (chick embryo dorsal root ganglions); assay type: cell-based
T2 construct: a fusion protein of extracellular domain of Sema6C and human placenta-derived alkaline phosphatase
T2 sequence (Q9WTL3 24-635 limits assumed): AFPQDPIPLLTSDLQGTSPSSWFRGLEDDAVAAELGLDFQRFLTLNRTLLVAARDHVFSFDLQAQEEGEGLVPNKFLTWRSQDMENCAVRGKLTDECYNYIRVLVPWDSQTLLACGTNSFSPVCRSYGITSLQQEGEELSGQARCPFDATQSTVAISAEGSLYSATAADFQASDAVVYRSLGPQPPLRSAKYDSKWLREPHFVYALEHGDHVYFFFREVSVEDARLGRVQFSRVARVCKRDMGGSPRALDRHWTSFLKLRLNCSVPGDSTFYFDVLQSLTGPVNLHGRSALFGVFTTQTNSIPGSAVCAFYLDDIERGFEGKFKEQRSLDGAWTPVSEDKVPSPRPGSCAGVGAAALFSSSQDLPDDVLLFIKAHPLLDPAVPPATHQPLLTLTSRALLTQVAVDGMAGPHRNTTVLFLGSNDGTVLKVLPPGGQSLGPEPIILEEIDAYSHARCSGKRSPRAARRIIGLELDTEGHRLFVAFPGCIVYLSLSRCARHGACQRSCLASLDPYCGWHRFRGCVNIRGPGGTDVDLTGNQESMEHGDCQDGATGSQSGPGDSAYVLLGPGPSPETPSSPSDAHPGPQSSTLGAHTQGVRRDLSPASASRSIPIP
Procedure: The experiment was carried out in a same way as in Example 2 except that rat semaphorin 6C-AP (Sema6C-AP: a fusion protein of extracellular domain of Sema6C and human placenta-derived alkaline phosphatase) was used instead of mouse semaphorin 3A (Sema3A), and dorsal root ganglions excised from 8-day-old chick embryos were used instead of those excised from 7-day-old chick embryos. The collapse rate of growth cone was measured when Sema6C-AP was added one hour after the addition of the compound SPF-3059-1 at various concentrations.

For `CC(=O)c1c(C)c(C(=O)C2COc3cc(O)c(O)c(C(=O)O)c3C2=O)cc2c(=O)c3c(C(=O)O)c(O)c(O)cc3oc12` (stereo not drawn) [SPF-3059-1], the “suppression of neurite outgrowth inhibitory activity of Sema3A, score” value ([1]; 0.5 μg/ml compound) was “+”, the “suppression of neurite outgrowth inhibitory activity of Sema3A, score” value ([1]; 1.0 μg/ml compound) was “++” and the “suppression of neurite outgrowth inhibitory activity of Sema3A, score” value ([1]; 2.0 μg/ml compound) was “+++”. The “persistent inhibitory action to Sema3A (neurite outgrowth toward Sema3A-expressing COS7 cell clump)” value ([1]; collagen gel co-culture, 2 days) was “persistently inhibit Sema3A activities; also recorded: persistently inhibited the action of Sema3A”, the “inhibition of growth cone collapse activity of Sema6C-AP (in words)” value ([2]; E8 chick embryo dorsal root ganglions, Sema6C-AP added one hour after compound) was “inhibit the growth cone collapse activities of Sema6C-AP in a concentration-dependent manner” and the “collapse rate of growth cones, compound alone” value ([2]; Sema6C-AP not added) was “did not affect the rate at all”.

Reference: patent US7317038B2, “Nerve regeneration promoters containing semaphorin inhibitor as the active ingredient” (Dainippon Sumitomo Pharma Co., Ltd., priority 2000, dated 2008)
